# Measured values as given in US10406157B2, “Tetrahydropyridopyrazine modulators of GPR6” (Takeda Pharmaceutical Company Limited, priority 2017, dated 2019).
# Assays:
# [1] = target: human GPR6 (Homo sapiens (Human), UniProt P46095); conditions: membranes from CHO-K1 cells expressing human GPR6, 3H radioligand
# Description: A competition binding assay using a filtration-based format is used to study the binding characteristics of GPR6 inverse agonists. The method employs membranes prepared from CHO-K1 cells expressing human GPR6 cDNA driven by a doxycycline inducible promoter. Assay ready 96 well plates (651201, Greiner, USA) containing serial dilutions of test compounds (1 μL of test ligand/well) are prepared in DMSO using liquid handlers (5 μM, final assay top concentration). Assay buffer (50 mM Tris, pH 7.4, 50 mM NaCl, 6 mM MgCl2, fatty acid free 0.1% BSA, 1:100 proteinase inhibitor cocktail, Sigma USA) is added (39 μL/well) and the plates are mixed on a plate shaker for 10 minutes. GPR6-specific ^3H radioligand is prepared in assay buffer and is added to each well (40 μL, 2.4 nM final assay concentration).
# To initiate the binding reactions, 40 μL of total membranes obtained from cells expressing human GPR6 receptors is added. The membranes are prepared in assay buffer and added per well to 15 μg/well final assay concentration. […] Scintillator sheet (1450-411, PerkinElmer, USA) is melted on filters and heat-sealed before CPM/well were quantified in MICROBETA® Trilux instrument (PerkinElmer, USA). […] The IC50 and Ki values are calculated using non-linear regression analysis in Prism (GraphPad, USA). Kd values are determined in standard radioligand saturation experiments.
# [2] = target: GPR6 receptor expressed in CHO-K1 cells (Homo sapiens (Human), UniProt P46095); experiment: In vitro inhibition of constitutive cAMP activity of GPR6 receptor (EC50); assay type: cell-based; conditions: CHO-K1 cells expressing GPR6
# Description: This cell-based assay measures the ability of test compounds to inhibit the constitutive cAMP activity of GPR6 receptor expressed in CHO-K1 cells. CHO cells are stably expressed with GPR6 receptor, whose expression is controlled by a tetracycline inducible element. The cells were cultured in medium containing F12K, 10% FBS, 1% Penn/Strep, 200 μg/mL Hygromycin. GPR6 receptor expression is induced for 20 hours with 2 μg/mL doxycycline (Sigma D9891) in growth media. After addition of doxycycline, the cells are plated at a density of 450-750 cells per well in 96-well half-volume black tissue culture plates (Costar) and placed in an incubator (37° C., 5% CO2) for 20 hours prior to cAMP assays.
# Culture media is removed from the cells and they are washed with 50 μL/well of Ringer's Buffer (MgCl2 0.047 mg/mL, NaH2PO4 0.18 mg/mL, Na2HPO4 0.1 mg/mL, KCl 0.34 mg/mL, NaHCO31.26 mg/mL, D-glucose 1.8 mg/mL, NaCl 7 mg/mL; pH=7.4). The test compounds are suspended in DMSO, diluted in Ringer's Buffer containing 0.5% fatty acid free BSA plus 300 μM 3-isobutyl-1-methylxanthine (IBMX), and incubated on the cells for 45 minutes at 37° C. and 5% CO2. […] Then ULIGHT™-anti-cAMP solution from the LANCE® kit is added and incubated on a shaker at room temperature for 1 hour prior to homogeneous time resolved fluorescence (HTRF) detection in a PerkinElmer EnVision plate reader. […]
# [3] = target: human hERG (Homo sapiens (Human), UniProt Q12809); experiment: Inhibition of human hERG via automated whole cell patch clamp; assay type: cell-based; conditions: for IC50: CHO-K1 cells transfected with human hERG cDNA, patch clamp; for safety margin relative to inhibition of hERG: statement in words
# Description: An automated whole cell patch-clamp system (QPATCH® 16) is used to record outward potassium currents from a single cell. The assay employs CHO-K1 (Chinese Hamster Ovary) cells stably transfected with human hERG cDNA. The cells are harvested by trypsinization and maintained in serum-free medium at room temperature before recording. The cells are washed and re-suspended in the extracellular solution before being applied to the automated patch-clamp sites. The test solutions are prepared in the aqueous extracellular solution (137 mM NaCl, 4 mM KCl, 1.8 mM CaCl2), 1 mM MgCl2, 10 mM D(+)-Glucose, 10 mM HEPES, pH adjusted to 7.4 with NaOH) on the day of patch-clamp assay. Seven concentrations (0.03, 0.1, 0.3, 1, 3, 10, and 30 μM) of the test compound are used to determine IC50. The aqueous intracellular solution contains 130 mM KCl, 10 mM NaCl, 1 mM MgCl2, 10 mM EGTA, 5 mM MgATP, and 10 mM HEPES (pH adjusted to 7.2 with KOH).
# After whole cell configuration is achieved, the cell is held at −80 mV. A 50 ms pulse to −40 mV is delivered to measure the leaking current, which is subtracted from the tail current on-line. Then the cell is depolarized to +20 mV for 2 seconds, followed by a 1 second pulse to −40 mV to reveal the hERG tail current. This paradigm is delivered once every 5 seconds to monitor the current amplitude. The assay is conducted at room temperature. The extracellular solution (control) is applied first and the cell is stabilized in the solution for 5 minutes. Then the test compound is applied from low to high concentrations sequentially on the same cell. The cells are incubated with each test concentration for 5 minutes. A reference compound E-4031 (N-(4-(1-(2-(6-methylpyridin-2-yl)ethyl)piperidine-4-carbonyl)phenyl)methanesulfonamide) is tested concurrently at multiple concentrations to obtain an IC50 value. The percent inhibition of hERG channel is calculated by comparing the tail current amplitude before and after application of the compound (the current difference is normalized to the control).
# [4] = test system: 6-OHDA rat model; experiment: 6-Hydroxydopamine (6-OHDA) rat model of Parkinson's disease, locomotor activity; assay type: in vivo
# Description: Compounds that improve motor activity are considered promising as potential therapies for Parkinson's disease. Rats of the 6-OHDA model of Parkinson's disease received bilateral injections of 6-OHDA into the striatum and coordinates Anterior-Posterior (AP): Medial-Lateral (ML): Dorsal-Ventral (DV), 1±3, −5 mm relative to Bregma under anaesthesia. Rats were tested for locomotor activity at least 28 days later.
# Locomotor activity was measured in an open field arena covered in an array of infrared beams. Beam breaks by the animals were processed using AMLOGGER software to monitor activity.
# [5] = test system: conscious beagle dogs; experiment: Effects on the cardiovascular system using telemetry in conscious beagle dogs; assay type: in vivo, dog; conditions: single oral gavage doses 30, 100 and 300 mg/kg, compared to vehicle
# From the text: The beagle dogs are equipped with telemetry devices from DSI PHYSIOTEL® Digital L21 transmitter implants according to the appropriate Charles River Laboratories, Montreal, QC Standard Operating Procedure (TB 12-04-06). The biopotential leads are placed in a modified lead II configuration. A minimum acclimation period of 6 days is allowed between animal arrival and the start of the surgical implantation of the telemetry devices in order to accustom the animals to the laboratory environment. A minimum recovery period of 4 weeks is allowed between surgeries and the start of treatment. […]
# The parameters monitored include: heart rate derived from blood pressure, left ventricular pressure (LVP), and electrocardiogram waveforms; LVP (peak systolic and end-diastolic LVP and max positive/negative dP/dt values); electrocardiogram (PR interval (PR), RR variability (RR″), QRS complex (QRS), QT intervals, and QTcv calculated using the Van de Water equation QTcv=QT−87(60/HR−1)); and body temperature.
# Marking of ECG segments is conducted using ECG Pattern Recognition software. A library for each animal is constructed of representative cycles from both the day and night cycle and is applied across monitoring occasions to ensure appropriate marking for quantitative assessments, in accordance with the appropriate Charles River Laboratories, Montreal, QC. […]
# human hERG, sequence (Q12809 whole entry): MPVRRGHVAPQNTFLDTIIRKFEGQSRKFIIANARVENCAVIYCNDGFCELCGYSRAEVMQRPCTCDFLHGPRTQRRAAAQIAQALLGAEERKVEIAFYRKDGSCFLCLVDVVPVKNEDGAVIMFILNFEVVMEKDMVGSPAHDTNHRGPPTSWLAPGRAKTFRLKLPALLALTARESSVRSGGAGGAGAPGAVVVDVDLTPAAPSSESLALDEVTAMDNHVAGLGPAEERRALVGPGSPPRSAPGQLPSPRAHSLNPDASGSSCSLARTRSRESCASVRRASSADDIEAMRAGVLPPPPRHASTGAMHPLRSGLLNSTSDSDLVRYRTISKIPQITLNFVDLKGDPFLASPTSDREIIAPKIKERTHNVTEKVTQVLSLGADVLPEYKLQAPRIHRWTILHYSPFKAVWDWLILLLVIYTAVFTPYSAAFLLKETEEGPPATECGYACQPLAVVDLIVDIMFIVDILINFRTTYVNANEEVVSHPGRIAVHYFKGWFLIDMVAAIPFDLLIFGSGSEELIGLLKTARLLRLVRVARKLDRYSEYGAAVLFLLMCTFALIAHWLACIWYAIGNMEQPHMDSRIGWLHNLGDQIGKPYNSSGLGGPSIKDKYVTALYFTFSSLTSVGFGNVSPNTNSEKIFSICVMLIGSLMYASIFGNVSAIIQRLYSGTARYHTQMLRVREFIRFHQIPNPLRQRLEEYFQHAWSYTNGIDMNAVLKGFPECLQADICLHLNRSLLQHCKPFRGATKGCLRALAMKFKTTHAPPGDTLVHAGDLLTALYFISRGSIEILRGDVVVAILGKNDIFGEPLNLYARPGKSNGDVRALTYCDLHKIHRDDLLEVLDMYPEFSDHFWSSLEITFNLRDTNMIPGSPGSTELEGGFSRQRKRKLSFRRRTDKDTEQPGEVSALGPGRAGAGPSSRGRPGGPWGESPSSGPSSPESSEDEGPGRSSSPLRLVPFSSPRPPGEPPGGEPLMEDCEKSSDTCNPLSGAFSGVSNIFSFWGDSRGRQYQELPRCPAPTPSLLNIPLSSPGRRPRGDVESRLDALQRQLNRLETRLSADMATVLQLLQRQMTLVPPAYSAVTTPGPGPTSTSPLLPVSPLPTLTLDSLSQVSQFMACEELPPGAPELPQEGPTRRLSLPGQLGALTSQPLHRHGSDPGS
# GPR6 receptor expressed in CHO-K1 cells, sequence (P46095 whole entry): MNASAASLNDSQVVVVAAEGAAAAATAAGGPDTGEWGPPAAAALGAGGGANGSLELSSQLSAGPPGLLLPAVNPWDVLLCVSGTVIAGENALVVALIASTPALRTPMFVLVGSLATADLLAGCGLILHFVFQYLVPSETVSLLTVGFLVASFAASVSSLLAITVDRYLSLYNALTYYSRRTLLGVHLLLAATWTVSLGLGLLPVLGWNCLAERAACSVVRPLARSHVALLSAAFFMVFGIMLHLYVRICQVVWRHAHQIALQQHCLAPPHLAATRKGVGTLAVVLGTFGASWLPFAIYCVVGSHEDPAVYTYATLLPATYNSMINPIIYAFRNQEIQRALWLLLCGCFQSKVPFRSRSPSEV
# human GPR6, sequence (P46095 whole entry): as above
Structure (SMILES),Ki [1] [nM],pEC50 [2],IC50 [3] [nM],safety margin relative to inhibition of hERG [3],"locomotor activity ([4]; 5 mg/kg and 10 mg/kg, compared to vehicle, after 50 minutes, FIG. 1)",locomotor activity ([4]; 10 mg/kg dose),hERG inhibition potency compared with Compound A ([3]; comparison in words),"arterial blood pressures, contractility, P-R interval, QRS complex, QT interval durations [5]"
"CC(=O)N1CCc2nc(N3CCC(Oc4ccc(F)cc4F)CC3)c(N[C@H]3CCOC3)nc2C1 [Compound A, (S)-1-(2-(4-(2,4-difluorophenoxy)piperidin-1-yl)-3-((tetrahydrofuran-3-yl)amino)-7,8-dihydropyrido[3,4-b]pyrazin-6(5H)-yl)ethan-1-one, reference compound]",6,7.2,505,suboptimal safety margin,,,,
"CC(=O)N1CCc2nc(N3CCC(Oc4ccc(F)cc4F)CC3)c(N[C@@H]3CCOC3)nc2C1 [Formula 1, (R)-1-(2-(4-(2,4-difluorophenoxy)piperidin-1-yl)-3-((tetrahydrofuran-3-yl)amino)-7,8-dihydropyrido[3,4-b]pyrazin-6(5H)-yl)ethan-1-one]",5.5,7.2,1970,improved SM-free,dose dependent improvement in locomotor activity,significant increase in activity,significantly less potent inhibitor of hERG than Compound A,No changes are observed
